Each structure is given as a SMILES string. Counter-ions that a name gives are not always drawn.

These results are taken from US6653478B2, “Substituted benzimidazol-2-ones as vasopressin receptor antagonists and neuropeptide Y modulators” (Ortho-McNeil Pharmaceutical, Inc., priority 2000, dated 2003).

Assay [1] deals with T1, NPY2 receptors (Homo sapiens, UniProt P49146).
T1 construct: Cell Membranes from KAN-TS cells having NPY2 receptors; endogenous in cells; host or cells: KAN-TS cells (membranes)
T1 sequence (P49146 1-381): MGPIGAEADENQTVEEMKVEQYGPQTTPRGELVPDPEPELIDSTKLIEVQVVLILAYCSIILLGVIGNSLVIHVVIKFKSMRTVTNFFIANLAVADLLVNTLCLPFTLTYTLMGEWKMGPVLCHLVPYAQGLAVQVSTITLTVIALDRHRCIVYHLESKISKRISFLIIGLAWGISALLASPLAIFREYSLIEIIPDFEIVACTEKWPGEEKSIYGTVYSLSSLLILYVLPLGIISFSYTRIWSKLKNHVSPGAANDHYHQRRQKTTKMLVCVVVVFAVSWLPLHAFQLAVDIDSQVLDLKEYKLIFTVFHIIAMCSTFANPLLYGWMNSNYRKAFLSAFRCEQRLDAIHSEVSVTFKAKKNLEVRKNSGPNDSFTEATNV
Nature of the assay: Neuropeptide Y receptor binding assay (125I-PYY, KAN-TS cell membranes). Particulars: 10 μM compound; read-out: NPY-2@10, % Inh. As to the method:
Neuropeptide Y Receptor Binding Assay
Load 96-well RIA racks with RIA vials (Sarstedt, cat. #73.1055)
Prepare membranes—use 2×15 cm confluent plates/96-well assay plate
Add 14 mls Homogenization buffer/cell pellet
Homogenize at high speed for 15 seconds
Transfer to 15 ml conical tube and spin 5′ at 4° C. at setting 3 in RT6000 centrifuge
Transfer supernatant to 30 ml Corex tube
Balance and spin 25′ at 15,000 rpm at 4° C.
Resuspend pellet in 10 mls Binding buffer
Homogenize at high speed for 15 sec.
Bring volume up to 50 mls in Binding buffer (25 mls/2×96-well plates)
Keep on ice until use or freeze in aliquots (2 plates/tube) in −70° C.
Prepare ^125I-PYY (for 2×96-well compound plates)
Dilute 50 uCi ^125I-PYY in 1 ml H2O
Add 0.4 ml 10% BSA to 20 ml Binding buffer
Add 150 μl ^125I-PYY, mix well
NSB (1 μM PYY final conc.): 40 μl PYY (100 μM stock)+60 μl 30% DMSO in HEPES=40 μM PYY—add 5 μl/well
Total Binding: Add 5 μl/well of Compound Diluent
Add 5 μl compound (final conc. @10 μM)
Incubate at R.T. for 1 hr.
Spin plates for 10′ at setting 9 in RT6000 centrifuge
Aspirate supernatant from tubes, add 300 μl PBS and aspirate again.
After plates are washed and aspirated, put individual tubes in 12×75 mm polypropylene carrier tubes. Count on gamma counter.

Assay [2] deals with human V2 receptor (Homo sapiens, UniProt P30518). The experiment in a line: V2 binding assay (3H-AVP displacement, HEK-293 membranes). On the set-up: expressed in transfected cells; host or cells: HEK-293 (membranes). Particulars: 1.0 μM compound; read-out: V2@1.0, % Inh. An outline of the steps: (§1)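 Tracer 3H-AVP, 10,000 cpm/well; buffer 50 mM Tris/5 mM MgCl2/0.1% BSA pH 7.5 + Pefabloc, aprotinin, leupeptin, pepstatin A, bacitracin; NSB 1.25 μM AVP; 1 h RT; GF/C filtration (0.3% PEI); scintillation count with quench correction.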

The target in assay [3] is T2, human V1b receptor (Homo sapiens, UniProt P47901).
T2 sequence (P47901 1-424): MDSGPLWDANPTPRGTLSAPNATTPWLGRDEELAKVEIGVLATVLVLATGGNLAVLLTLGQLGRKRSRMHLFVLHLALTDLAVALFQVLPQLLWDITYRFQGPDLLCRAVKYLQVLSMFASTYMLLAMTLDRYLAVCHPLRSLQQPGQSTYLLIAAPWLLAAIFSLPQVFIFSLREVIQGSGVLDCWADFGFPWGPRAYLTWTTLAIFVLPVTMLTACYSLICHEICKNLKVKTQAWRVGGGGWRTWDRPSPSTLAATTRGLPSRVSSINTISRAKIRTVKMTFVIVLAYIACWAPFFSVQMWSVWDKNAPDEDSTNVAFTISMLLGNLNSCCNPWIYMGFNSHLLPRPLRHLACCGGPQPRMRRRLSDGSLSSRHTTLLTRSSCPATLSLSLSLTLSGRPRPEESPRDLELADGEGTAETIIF
Nature of the assay: V1b binding assay (3H-AVP displacement, HEK-293 membranes). More on the design: expressed in transfected cells; host or cells: HEK-293 (membranes). Particulars: for inhibition at 10 µM: 10 μM compound, read-out: V1b % Inh @10. In a few lines:
as §1

Assay [4] has as its target human V1a receptor (Homo sapiens, UniProt P37288). Nature of the assay: V1a binding assay (3H-AVP displacement, HEK-293 membranes). On the set-up: expressed in transfected cells; host or cells: HEK-293 (membranes). Particulars: for inhibition at 1 µM: 1.0 μM compound, read-out: V1a@1.0, % Inh; for inhibition at 0.1 µM: 0.1 μM compound, read-out: V1a % Inh @0.1. In a few lines: as §1

Chain of human V2 receptor (P30518 whole entry): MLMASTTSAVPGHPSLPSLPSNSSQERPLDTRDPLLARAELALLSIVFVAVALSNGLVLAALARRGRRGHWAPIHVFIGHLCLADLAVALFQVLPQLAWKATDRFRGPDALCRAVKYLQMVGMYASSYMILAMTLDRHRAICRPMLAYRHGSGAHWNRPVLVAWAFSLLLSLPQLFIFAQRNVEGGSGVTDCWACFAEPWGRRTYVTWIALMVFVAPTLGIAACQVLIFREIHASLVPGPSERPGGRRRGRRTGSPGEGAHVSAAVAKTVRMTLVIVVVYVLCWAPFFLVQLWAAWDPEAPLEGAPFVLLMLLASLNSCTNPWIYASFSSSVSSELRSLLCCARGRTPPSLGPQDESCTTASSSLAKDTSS
Chain of human V1a receptor (P37288 whole entry): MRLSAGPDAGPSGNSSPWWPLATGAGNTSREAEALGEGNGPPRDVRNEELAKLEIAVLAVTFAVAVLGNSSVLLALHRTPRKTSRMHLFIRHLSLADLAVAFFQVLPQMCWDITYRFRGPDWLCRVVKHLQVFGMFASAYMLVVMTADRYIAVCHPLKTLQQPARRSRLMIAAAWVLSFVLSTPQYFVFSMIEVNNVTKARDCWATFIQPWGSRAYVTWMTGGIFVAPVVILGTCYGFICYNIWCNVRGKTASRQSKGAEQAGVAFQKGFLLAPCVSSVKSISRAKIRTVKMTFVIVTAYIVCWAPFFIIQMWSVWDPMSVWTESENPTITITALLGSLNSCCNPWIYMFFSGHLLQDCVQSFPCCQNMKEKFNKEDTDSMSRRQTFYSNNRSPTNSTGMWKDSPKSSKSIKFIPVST

`CC(=O)NCCNC(=O)C(Cc1ccccc1)NC(=S)N1CCC(n2c(=O)[nH]c3ccccc32)CC1` (stereo not drawn) [Compound 44]: the inhibition at 10 µM is 9% in assay [1] and 24% in assay [3]. Further, the inhibition at 1 µM in assay [2] was found to be 2%; in assay [4] it was 37%.
Turning to `CC(C)(C)OC(=O)NCCNC(=O)C(Cc1ccccc1)NC(=S)N1CCC(n2c(=O)[nH]c3ccccc32)CC1` (stereo not drawn) [Compound 46], the inhibition at 10 µM in assay [1] came out at 16%; in assay [3], 26%. Further, the inhibition at 1 µM in assay [2] turned out to be 0%. For the same molecule, in assay [4], the inhibition at 0.1 µM was 8%.
For `NC(=O)C(Cc1ccccc1)NC(=S)N1CCC(n2c(=O)[nH]c3ccccc32)CC1` (stereo not drawn) [Compound 47], the inhibition at 10 µM was determined as 10% in assay [1] and 0% in assay [3]. The inhibition at 1 µM came to 14% in assay [2] and 45% in assay [4].
As to `Cc1ccccc1NC(=O)N1CCC(n2c(=O)[nH]c3ccccc32)CC1` [Compound 48], the results for the inhibition at 10 µM in assay [1] and in assay [3] were 22% and 3%, respectively. Besides, the inhibition at 1 µM amounted to 0% in assay [2] and 2% in assay [4].
The like results for `O=C(Nc1ccccc1-c1ccccc1)N1CCC(n2c(=O)[nH]c3ccccc32)CC1` [Compound 49] were, in that order, 12%, 18%, 0% and 63%.
The corresponding values for `COC(=O)[C@@H](Cc1c[nH]c2ccccc12)NC(=S)N1CCC(n2c(=O)[nH]c3ccccc32)CC1` [Compound 50] are 16%, 15%, 0% and 8%.
The like results for `COC(=O)[C@@H](Cc1ccccc1)NC(=S)N1CCC(n2c(=O)[nH]c3ccccc32)CC1` [Compound 51] were, in that order, 2%, 19%, 1% and 25%.
With `O=C1c2ccccc2C(=O)N1CCCn1c(=O)n(C2CCN(C(=S)NC(c3ccccc3)c3ccccc3)CC2)c2ccccc21` [Compound 54, 1-[(N1-Piperidinocarbothioyldiphenylmethylamino)-4-yl]-3-(3-N-phthalimidopropyl)-1,3-dihydrobenzimidazol-2-one], the inhibition at 10 µM in assay [1] is 4%; in assay [3] it was 18%. The inhibition at 1 µM is 0% in assay [2] and 47% in assay [4].
As for `COC(=O)C(Cc1ccccc1)NC(=S)N1CCC(n2c(=O)n(CCCN3C(=O)c4ccccc4C3=O)c3ccccc32)CC1` (stereo not drawn) [Compound 56], the inhibition at 10 µM in assay [1] is 22%; in assay [3], 19%. Besides, the inhibition at 1 µM in assay [2] stood at 3%. The same molecule registered an IC50 in assay [4] of 360 nM.
For `CCOC(=O)CCn1c(=O)n(C2CCN(C(=S)NC(c3ccccc3)c3ccccc3)CC2)c2ccccc21` [Compound 60, 1-[(N1-Piperidinocarbothioyldiphenylmethylamino)-4-yl]-3-(2-carboethoxyethyl)-1,3-dihydro-benzimidazol-2-one], the inhibition at 10 µM in assay [1] was 35%; in assay [3], 19%. Further, the inhibition at 1 µM came to 0% in assay [2] and 49% in assay [4].
The corresponding values for `O=C(O)CCn1c(=O)n(C2CCN(C(=S)NC(c3ccccc3)c3ccccc3)CC2)c2ccccc21` [Compound 61, 1-[(N1-Piperidinocarbothioyldiphenylmethylamino)-4-yl]-3-(2-carboxyethyl)-1,3-dihydrobenzimidazol-2-one] are 90%, 22%, 0% and 17%.
Consider `COc1ccc(C(NC(=S)N2CCC(n3c(=O)[nH]c4ccccc43)CC2)c2ccc(OC)cc2)cc1` [Compound 66, 1-[(N1-Piperidinocarbothioyl-1,1-di(p-anisyl)methylamino)-4-yl]-1,3-dihydrobenzimidazol-2-one], for which the figures for the inhibition at 10 µM in assay [1] and in assay [3] were 21% and 11%, respectively. For the same molecule, in assay [2], the inhibition at 1 µM was found to be 0%. The inhibition at 0.1 µM in assay [4] was determined as 15%.
The like results for `NCCCn1c(=O)n(C2CCN(C(=S)NC(c3ccccc3)c3ccccc3)CC2)c2cc(Cl)c(Cl)cc21` [Compound 67, 5,6-Dichloro-1-[(N1-piperidinocarbothioylbenzhydrylamino)-4-yl]-3-(3-aminopropyl)-1,3-dihydro-benzimidazol-2-one] were, in that order, 2%, 45%, 0% and 57%.
As to `COc1ccc(C(NC(=S)N2CCC(n3c(=O)n(CCCN)c4ccccc43)CC2)c2ccc(OC)cc2)cc1` [Compound 68, 1-[(N1-Piperidinocarbothioyl-1,1-di(p-anisyl)methylamino)-4-yl]-3-(3-aminopropyl)-1,3-dihydrobenzimidazol-2-one Hydrochloride], the inhibition at 10 µM was 11% in assay [1] and 66% in assay [3]. Further, in assay [2], the inhibition at 1 µM worked out at 0%. In assay [3], this molecule returned an IC50 of 4600 nM. Further, the inhibition at 0.1 µM in assay [4] was determined as 46%.
Consider `NC(=O)CCn1c(=O)n(C2CCN(C(=S)NC(c3ccccc3)c3ccccc3)CC2)c2ccccc21` [Compound 69, 1-[(N1-piperidinocarbothioyldiphenylmethylamino)-4-yl]-3-(2-amidoethyl)-1,3-dihydro-benzimidazol-2-one], for which the inhibition at 10 µM in assay [1] was determined as 40%; in assay [3], 27%. Also, the inhibition at 1 µM in assay [2] turned out to be 0%; in assay [4], 22%.
Consider `CN(C)CCCn1c(=O)n(C2CCN(C(=S)NC(c3ccccc3)c3ccccc3)CC2)c2ccccc21` [Compound 71, 1-[(N1-piperidinocarbothioylbenzhydrylamino)-4-yl]-3-(3-N,N-dimethylaminopropyl)-1,3-dihydrobenzimidazol-2-one], for which the inhibition at 10 µM was found to be 79% in assay [1] and 88% in assay [3]. Also, in assay [2], the inhibition at 1 µM stood at 0%. Besides, the IC50 in assay [3] came to 870 nM; in assay [4] it was 29 nM.
Turning to `O=c1n(CCCN2CCCC2)c2ccccc2n1C1CCN(C(=S)NC(c2ccccc2)c2ccccc2)CC1` [Compound 73, 1-[(N1-piperidinocarbothioylbenzhydrylamino)-4-yl]-3-(3-N-pyrrolidinopropyl)-1,3-dihydro-benzimidazol-2-one], the inhibition at 10 µM in assay [1] is 89%. The inhibition at 1 µM in assay [2] was 0%. The IC50 in assay [3] was found to be 300 nM; in assay [4] it was 16 nM.
With `O=C(NCc1ccccc1)N1CCC(n2c(=O)[nH]c3ccccc32)CC1` [Compound 74], the inhibition at 10 µM was 0% in assay [1] and 29% in assay [3]. Besides, the inhibition at 1 µM in assay [2] and in assay [4] was 0% in each case.
Consider `O=C(NC(c1ccccc1)c1ccccc1)N1CCC(n2c(=O)[nH]c3ccccc32)CC1` [Compound 75], for which the inhibition at 10 µM in assay [1] amounted to 12%. The inhibition at 1 µM in assay [2] came out at 0%; in assay [4] it was 58%. Besides, in assay [3], the IC50 turned out to be 1000 nM.
